From patent US7807663B2, “Therapeutic agents for diabetes” (Ajinomoto Co., Inc., priority 2003, dated 2010) come the findings set out here.

The test has as its system adipose cells of rats. In words: Evaluation of the sugar transportation activity (2-[14C(U)]-deoxy-D-glucose incorporation). The class given is cell-based, Wistar rats. The settings on record: concentration with reinforcing effect of 50% of that of insulin (100 nM) = 100%; rat adipose cells, 30 min pre-culture at 37° C., 5 min uptake. How it is done:
1. Preparation of Adipose Cells of Rats:
After the decapitation and venesection of 6 male Wistar rats (body weight: 150 to 200 g), an incision was made in the abdomen of each rat to extract 6 g in total of epididymal adipose tissues. The tissues were finely cut into 2 mm×2 mm pieces in 6 ml of KRH (Krebs-Ringer Hepes, composition: 130 mM of sodium chloride, 4.7 mM of potassium chloride, 1.2 mM of potassium dihydrogenphosphate, 1.2 mM of magnesium sulfate, 1 mM of calcium chloride and 25 mM of Hepes, pH=7.6) containing 5% of BSA (bovine serum albumin). 24 mg of collagenase (type I) was added thereto and the digestion treatment was conducted for about 40 minutes to obtain about 6 ml of isolated adipose cells. The collagenase was removed by the buffer exchange. 2% BSA/KRH solution was added to the residue for the re-suspension to obtain 45 ml of an adipose cell suspension.
2. Evaluation of the Sugar Transportation Activity:
The sugar transportation activity of the compound (I) of the present invention was evaluated with reference to a method described in a literature [Annual Review of Biochemistry, Vol. 55, p. 1059 (1986)]. In the test, 200 μL of the adipose cell suspension was poured in each polystyrene test tube, 100 μL of the solution of the test substance (by dilution of 10 mg/mL dimethyl sulfoxide solution with KRH) was added thereto, and the obtained mixture was shaken and then cultured at 37° C. for 30 minutes. The sugar transportation activity was evaluated by measuring the quantity of 2-[^14C(U)]-deoxy-D-glucose incorporated per a unit time. Namely, 2-[^14C(U)]-deoxy-D-glucose was added to the adipose cell suspension after the pre-culture (the final concentration: 0.5 μCi/sample). 5 minutes after, cytochalasin B (final concentration: 10 μM) was added to the mixture to terminate the sugar transportation. After forming a dinonyl phthalate layer, the obtained mixture was centrifuged to separate the adipose cells from the buffer. The quantity of 2-[^14C(U)]-deoxy-D-glucose contained in the adipose cell layer was determined with a liquid scintillation counter to determine the quantity of the incorporated sugar. In this evaluation system, when insulin (100 nM) having the effect of reinforcing the sugar transportation was used, the effect was about 7 times as high as that obtained in the insulin-free control group.
The results of the evaluation of the sugar transportation activity obtained by using 100 μg/mL of the compound (I) of the present invention are shown in Table 3. The sugar transportation activity in Table 3 was evaluated on the basis of the reinforcing effect of insulin (100 nM). The sugar transportation activity A in Table 3 was determined in terms of the concentration (EC50: μg/mL) of a test compound, having a reinforcing effect corresponding to 50% on the basis of the reinforcing effect of insulin (100 nM) having a reinforcing effect of 100%.
The symbols in Table 3 are as follows: • No: Compound No. in Tables 1 and 2, and • A: sugar transportation activity.

For `COc1ccccc1[C@@H]1C2=C(CNC2=O)N[C@@H]2CCCC[C@H]2N1C(=O)c1ccncc1` [Compound 35], the “A: sugar transportation activity (EC50)” value came out at 18 µg/mL.

For `COc1ccccc1[C@@H]1C2=C(CNC2=O)N[C@@H]2CCCC[C@H]2N1C(=O)c1cnccn1` [Compound 36], the “A: sugar transportation activity (EC50)” value was determined as 8.6 µg/mL.

On to `COC(=O)N1[C@@H]2CCCC[C@H]2NC2=C(C(=O)NC2)[C@H]1c1ccccc1OC` [Compound 37], for which the “A: sugar transportation activity (EC50)” value came out at 6 µg/mL.

In the case of `CCOC(=O)N1[C@@H]2CCCC[C@H]2NC2=C(C(=O)NC2)[C@H]1c1ccccc1OC` [Compound 38], the “A: sugar transportation activity (EC50)” value is 4.2 µg/mL.

As to `COc1ccccc1[C@@H]1C2=C(CNC2=O)N[C@@H]2CCCC[C@H]2N1C(=O)OCc1ccccc1` [Compound 39], the “A: sugar transportation activity (EC50)” value was determined as 6 µg/mL.

In the case of `COc1ccccc1[C@@H]1C2=C(CNC2=O)N[C@@H]2CCCC[C@H]2N1C(=O)Oc1ccccc1` [Compound 40], the “A: sugar transportation activity (EC50)” value came out at 11 µg/mL.

`CCNC(=O)N1[C@@H]2CCCC[C@H]2NC2=C(C(=O)NC2)[C@H]1c1ccccc1OC` [Compound 41]: the “A: sugar transportation activity (EC50)” value came out at 3.6 µg/mL.

As for `CCCNC(=O)N1[C@@H]2CCCC[C@H]2NC2=C(C(=O)NC2)[C@H]1c1ccccc1OC` [Compound 42], the “A: sugar transportation activity (EC50)” value was 7 µg/mL.

In the case of `CCOc1ccccc1[C@@H]1C2=C(CNC2=O)N[C@@H]2CCCC[C@H]2N1C(C)=O` [Compound 46], the “A: sugar transportation activity (EC50)” value was 15 µg/mL.

In the case of `CCOc1ccccc1[C@@H]1C2=C(CNC2=O)N[C@@H]2CCCC[C@H]2N1C(=O)CC` [Compound 47], the “A: sugar transportation activity (EC50)” value stood at 1.9 µg/mL.

Regarding `CCCC(=O)N1[C@@H]2CCCC[C@H]2NC2=C(C(=O)NC2)[C@H]1c1ccccc1OCC` [Compound 48], the “A: sugar transportation activity (EC50)” value is 1.3 µg/mL.

As to `CCOc1ccccc1[C@@H]1C2=C(CNC2=O)N[C@@H]2CCCC[C@H]2N1C(=O)C(F)(F)F` [Compound 49], the “A: sugar transportation activity (EC50)” value amounted to 5 µg/mL.

For the compound `CCOc1ccccc1[C@@H]1C2=C(CNC2=O)N[C@@H]2CCCC[C@H]2N1C(=O)COC(C)=O` [Compound 50], the “A: sugar transportation activity (EC50)” value is 13 µg/mL.

In the case of `CCOc1ccccc1[C@@H]1C2=C(CNC2=O)N[C@@H]2CCCC[C@H]2N1C(=O)CO` [Compound 51], the “A: sugar transportation activity (EC50)” value was determined as 3.8 µg/mL.

On to `CCOc1ccccc1[C@@H]1C2=C(CNC2=O)N[C@@H]2CCCC[C@H]2N1C(=O)COC` [Compound 52], for which the “A: sugar transportation activity (EC50)” value worked out at 3.6 µg/mL.

`CCOCC(=O)N1[C@@H]2CCCC[C@H]2NC2=C(C(=O)NC2)[C@H]1c1ccccc1OCC` [Compound 53]: the “A: sugar transportation activity (EC50)” value was determined as 4 µg/mL.

For `CCOc1ccccc1[C@@H]1C2=C(CNC2=O)N[C@@H]2CCCC[C@H]2N1C(=O)OC` [Compound 54], the “A: sugar transportation activity (EC50)” value was determined as 1.5 µg/mL.

With `CCOC(=O)N1[C@@H]2CCCC[C@H]2NC2=C(C(=O)NC2)[C@H]1c1ccccc1OCC` [Compound 55], the “A: sugar transportation activity (EC50)” value was 7 µg/mL.

Regarding `CCNC(=O)N1[C@@H]2CCCC[C@H]2NC2=C(C(=O)NC2)[C@H]1c1ccccc1OCC` [Compound 56], the “A: sugar transportation activity (EC50)” value came to 12 µg/mL.

With `CC(=O)N1[C@@H]2CCCC[C@H]2NC2=C(C(=O)NC2)[C@H]1c1ccccc1OC(C)C` [Compound 57], the “A: sugar transportation activity (EC50)” value was 14 µg/mL.

Consider `CCC(=O)N1[C@@H]2CCCC[C@H]2NC2=C(C(=O)NC2)[C@H]1c1ccccc1OC(C)C` [Compound 58], for which the “A: sugar transportation activity (EC50)” value worked out at 2 µg/mL.

Regarding `CCOCC(=O)N1[C@@H]2CCCC[C@H]2NC2=C(C(=O)NC2)[C@H]1c1ccccc1OC(C)C` [Compound 59], the “A: sugar transportation activity (EC50)” value was determined as 2 µg/mL.

Consider `COC(=O)N1[C@@H]2CCCC[C@H]2NC2=C(C(=O)NC2)[C@H]1c1ccccc1OC(C)C` [Compound 60], for which the “A: sugar transportation activity (EC50)” value was 4.8 µg/mL.

As to `CC(=O)N1[C@@H]2CCCC[C@H]2NC2=C(C(=O)NC2)[C@H]1c1ccccc1OC1CC1` [Compound 61], the “A: sugar transportation activity (EC50)” value was 0.9 µg/mL.

As for `CCOCC(=O)N1[C@@H]2CCCC[C@H]2NC2=C(C(=O)NC2)[C@H]1c1ccccc1OCc1ccccc1` [Compound 63], the “A: sugar transportation activity (EC50)” value amounted to 4 µg/mL.

`CC(=O)N1[C@@H]2CCCC[C@H]2NC2=C(C(=O)NC2)[C@H]1c1ccccc1OCc1ccccc1` [Compound 64]: the “A: sugar transportation activity (EC50)” value turned out to be 3.6 µg/mL.

Take `CCOCC(=O)N1[C@@H]2CCCC[C@H]2NC2=C(C(=O)NC2)[C@H]1c1ccccc1O` [Compound 65]: the “A: sugar transportation activity (EC50)” value worked out at 1 µg/mL.

Turning to `CC(=O)N1[C@@H]2CCCC[C@H]2NC2=C(C(=O)NC2)[C@H]1c1ccccc1O` [Compound 66], the “A: sugar transportation activity (EC50)” value came to 3.7 µg/mL.

For the compound `O=C1NCC2=C1[C@@H](c1ccccc1OC(F)(F)F)N(C(=O)CO)[C@@H]1CCCC[C@H]1N2` [Compound 68], the “A: sugar transportation activity (EC50)” value was 2.7 µg/mL.

In the case of `COCC(=O)N1[C@@H]2CCCC[C@H]2NC2=C(C(=O)NC2)[C@H]1c1ccccc1OC(F)(F)F` [Compound 69], the “A: sugar transportation activity (EC50)” value stood at 2 µg/mL.

For `CCC(=O)N1[C@@H]2CCCC[C@H]2NC2=C(C(=O)NC2)[C@H]1c1ccc(F)cc1OC` [Compound 70], the “A: sugar transportation activity (EC50)” value is 0.82 µg/mL.

For the compound `CCOCC(=O)N1[C@@H]2CCCC[C@H]2NC2=C(C(=O)NC2)[C@H]1c1ccc(F)cc1OC` [Compound 71], the “A: sugar transportation activity (EC50)” value worked out at 7.8 µg/mL.

`COc1cc(F)ccc1[C@@H]1C2=C(CNC2=O)N[C@@H]2CCCC[C@H]2N1C(C)=O` [Compound 72]: the “A: sugar transportation activity (EC50)” value was 8 µg/mL.

In the case of `COc1cc(Cl)ccc1[C@@H]1C2=C(CNC2=O)N[C@@H]2CCCC[C@H]2N1C(C)=O` [Compound 73], the “A: sugar transportation activity (EC50)” value stood at 6 µg/mL.

For the compound `COc1ccc(F)cc1[C@@H]1C2=C(CNC2=O)N[C@@H]2CCCC[C@H]2N1C(C)=O` [Compound 76], the “A: sugar transportation activity (EC50)” value was 10 µg/mL.

As to `COc1cccc([C@@H]2C3=C(CNC3=O)N[C@@H]3CCCC[C@H]3N2C(C)=O)c1OC` [Compound 77], the “A: sugar transportation activity (EC50)” value amounted to 12 µg/mL.

Turning to `COc1ccc([C@@H]2C3=C(CNC3=O)N[C@@H]3CCCC[C@H]3N2C(C)=O)c(OC)c1` [Compound 78], the “A: sugar transportation activity (EC50)” value was determined as 10 µg/mL.

On to `Cc1ccccc1[C@@H]1C2=C(CNC2=O)N[C@@H]2CCCC[C@H]2N1C(=O)C(F)(F)F` [Compound 82], for which the “A: sugar transportation activity (EC50)” value turned out to be 6 µg/mL.

With `CCC(=O)N1[C@@H]2CCCC[C@H]2NC2=C(C(=O)NC2)[C@H]1c1ccccc1C` [Compound 83], the “A: sugar transportation activity (EC50)” value came out at 2 µg/mL.

For the compound `CCOCC(=O)N1[C@@H]2CCCC[C@H]2NC2=C(C(=O)NC2)[C@H]1c1ccccc1C` [Compound 84], the “A: sugar transportation activity (EC50)” value amounted to 4 µg/mL.

Regarding `CC(=O)OCC(=O)N1[C@@H]2CCCC[C@H]2NC2=C(C(=O)NC2)[C@H]1c1ccccc1C` [Compound 85], the “A: sugar transportation activity (EC50)” value was determined as 8 µg/mL.

With `Cc1ccccc1[C@@H]1C2=C(CNC2=O)N[C@@H]2CCCC[C@H]2N1C(=O)CO` [Compound 86], the “A: sugar transportation activity (EC50)” value amounted to 2.5 µg/mL.

For the compound `COCC(=O)N1[C@@H]2CCCC[C@H]2NC2=C(C(=O)NC2)[C@H]1c1ccccc1C` [Compound 87], the “A: sugar transportation activity (EC50)” value came out at 6 µg/mL.
